≈ marks a conversion by molar mass, not a printed value. Where two headings read alike, the source gives them in different places.
What was measured:
Assay in all cases: In vitro MIC, 2010 surveillance isolates
K. pneumoniae ESBL+ = assay type: cell-based, Klebsiella pneumoniae
E. faecium VNS = assay type: cell-based
E. cloacae CeftazR = assay type: cell-based
E. coli ESBL− = assay type: cell-based, Escherichia coli
E. cloacae CeftazS = assay type: cell-based
E. coli ESBL+ = assay type: cell-based, Escherichia coli
MRSA = assay type: cell-based
E. faecalis VNS = assay type: cell-based
Enterobacter spp = assay type: cell-based
E. faecium VS = assay type: cell-based
MSSA = assay type: cell-based
K. pneumoniae ESBL− = assay type: cell-based, Klebsiella pneumoniae
K. oxytoca = assay type: cell-based
A. baumanii = assay type: cell-based
E. faecalis VS = assay type: cell-based
MS CoNS = assay type: cell-based, Coagulase-Negative Staphylococcus
Acinetobacter spp = assay type: cell-based; settings: for % R (resistance): CLSI breakpoints
MR CoNS = assay type: cell-based, Coagulase-Negative Staphylococcus

`CO/N=C(\C(=O)N[C@@H]1C(=O)N2C(C(=O)O)=C(CSc3nc(=O)c(=O)[nH]n3C)CS[C@H]12)c1csc(N)n1` [Ceftriaxone] was tested, and the “% R (resistance)” value (K. pneumoniae ESBL+; Asia/Pac, Eucast breakpoints) was 93.5%, the MIC90 (K. pneumoniae ESBL+; Asia/Pac, N=124) was > 8 µg/mL and the “% R (resistance)” value (K. pneumoniae ESBL+; Europe, Eucast breakpoints) was 94.7%. The MIC90 (K. pneumoniae ESBL+; Europe, N=151) was > 8 µg/mL, the “% R (resistance)” value (K. pneumoniae ESBL+; L. Amer, CLSI breakpoints) was 99.5% and the MIC90 (K. pneumoniae ESBL+; L. Amer, N=209) was > 8 µg/mL. The “% R (resistance)” value (K. pneumoniae ESBL+; N America, CLSI breakpoints) was 95.4%, the MIC90 (K. pneumoniae ESBL+; N America, N=108) was > 8 µg/mL and the MIC90 (E. faecium VNS; Asia/Pac, N=24) was > 8 µg/mL. The MIC90 (E. faecium VNS; Europe, N=71) was > 8 µg/mL, the MIC90 (E. faecium VNS; L. Amer, N=41) was > 8 µg/mL and the MIC90 (E. faecium VNS; N America, N=478) was > 8 µg/mL. The “% R (resistance)” value (E. cloacae CeftazR; Asia/Pac, Eucast breakpoints) was 100%, the MIC90 (E. cloacae CeftazR; Asia/Pac, N=63) was > 8 µg/mL and the “% R (resistance)” value (E. cloacae CeftazR; Europe, Eucast breakpoints) was 100%. The MIC90 (E. cloacae CeftazR; Europe, N=72) was > 8 µg/mL, the “% R (resistance)” value (E. cloacae CeftazR; L. Amer, CLSI breakpoints) was 100% and the MIC90 (E. cloacae CeftazR; L. Amer, N=42) was > 8 µg/mL. The “% R (resistance)” value (E. cloacae CeftazR; N America, CLSI breakpoints) was 100%, the MIC90 (E. cloacae CeftazR; N America, N=77) was > 8 µg/mL and the “% R (resistance)” value (E. coli ESBL−; Asia/Pac, Eucast breakpoints) was 0%. The MIC90 (E. coli ESBL−; Asia/Pac, N=282) was 0.12 µg/mL (≈ 0.216 µM), the “% R (resistance)” value (E. coli ESBL−; Europe, Eucast breakpoints) was 0% and the MIC90 (E. coli ESBL−; Europe, N=1533) was 0.12 µg/mL (≈ 0.216 µM). The “% R (resistance)” value (E. coli ESBL−; L. Amer, CLSI breakpoints) was 0%, the MIC90 (E. coli ESBL−; L. Amer, N=389) was 0.12 µg/mL (≈ 0.216 µM) and the “% R (resistance)” value (E. coli ESBL−; N America, CLSI breakpoints) was 0%. The MIC90 (E. coli ESBL−; N America, N=1172) was 0.12 µg/mL (≈ 0.216 µM), the “% R (resistance)” value (E. cloacae CeftazS; Asia/Pac, Eucast breakpoints) was 5% and the MIC90 (E. cloacae CeftazS; Asia/Pac, N=100) was 2 µg/mL (≈ 3.61 µM). For the same molecule, the “% R (resistance)” value (E. cloacae CeftazS; Europe, Eucast breakpoints) was 7.7%, the MIC90 (E. cloacae CeftazS; Europe, N=183) was 2 µg/mL (≈ 3.61 µM) and the “% R (resistance)” value (E. cloacae CeftazS; L. Amer, CLSI breakpoints) was 24.6%. For the same molecule, the MIC90 (E. cloacae CeftazS; L. Amer, N=57) was > 8 µg/mL, the “% R (resistance)” value (E. cloacae CeftazS; N America, CLSI breakpoints) was 3.3% and the MIC90 (E. cloacae CeftazS; N America, N=210) was 1 µg/mL (≈ 1.8 µM). The “% R (resistance)” value (E. coli ESBL+; Asia/Pac, Eucast breakpoints) was 99.5%, the MIC90 (E. coli ESBL+; Asia/Pac, N=219) was > 8 µg/mL and the “resistance rates for ESBL-producing clinical isolates” value (E. coli ESBL+; E. coli) was 95%. For the same molecule, the MIC90 (E. coli ESBL+; Escherichia coli, ESBL-producing E. coli, read-out: MIC90) was > 8 µg/mL, the “% R (resistance)” value (E. coli ESBL+; Europe, Eucast breakpoints) was 94.2% and the MIC90 (E. coli ESBL+; Europe, N=274) was > 8 µg/mL. For the same molecule, the “% R (resistance)” value (E. coli ESBL+; L. Amer, CLSI breakpoints) was 97.6%, the MIC90 (E. coli ESBL+; L. Amer, N=168) was > 8 µg/mL and the “% R (resistance)” value (E. coli ESBL+; N America, CLSI breakpoints) was 85.8%. For the same molecule, the MIC90 (E. coli ESBL+; N America, N=134) was > 8 µg/mL, the “% R (resistance)” value (MRSA; Asia/Pac, Eucast breakpoints) was 100% and the MIC90 (MRSA; Asia/Pac, N=428) was > 8 µg/mL. For the same molecule, the “% R (resistance)” value (MRSA; Europe, Eucast breakpoints) was 100%, the MIC90 (MRSA; Europe, N=750) was > 8 µg/mL and the “% R (resistance)” value (MRSA; L. Amer, CLSI breakpoints) was 100%. For the same molecule, the MIC90 (MRSA; L. Amer, N=506) was > 8 µg/mL, the “% R (resistance)” value (MRSA; N America, CLSI breakpoints) was 100% and the MIC90 (MRSA; N America, N=2508) was > 8 µg/mL. For the same molecule, the “range of MICs (N <10, shown instead of MIC90)” value (shortened to “range of MICs”) (E. faecalis VNS; Asia/Pac, N=1) was >8, the “range of MICs” value (E. faecalis VNS; Europe, N=8) was >8 and the “range of MICs” value (E. faecalis VNS; L. Amer, N=7) was >8. The MIC90 (E. faecalis VNS; N America, N=38) was > 8 µg/mL, the “% R (resistance)” value (Enterobacter spp; Asia/Pac, Eucast breakpoints) was 30.8% and the MIC90 (Enterobacter spp; Asia/Pac, N=52) was > 8 µg/mL. For the same molecule, the “% R (resistance)” value (Enterobacter spp; Europe, Eucast breakpoints) was 39%, the MIC90 (Enterobacter spp; Europe, N=82) was > 8 µg/mL and the “% R (resistance)” value (Enterobacter spp; L. Amer, CLSI breakpoints) was 31%. The MIC90 (Enterobacter spp; L. Amer, N=42) was > 8 µg/mL, the “% R (resistance)” value (Enterobacter spp; N America, CLSI breakpoints) was 24.8% and the MIC90 (Enterobacter spp; N America, N=101) was > 8 µg/mL. For the same molecule, the MIC90 (E. faecium VS; Asia/Pac, N=106) was > 8 µg/mL, the MIC90 (E. faecium VS; Europe, N=303) was > 8 µg/mL and the MIC90 (E. faecium VS; L. Amer, N=51) was > 8 µg/mL. For the same molecule, the MIC90 (E. faecium VS; N America, N=115) was > 8 µg/mL, the “% R (resistance)” value (MSSA; Asia/Pac, Eucast breakpoints) was 0% and the MIC90 (MSSA; Asia/Pac, N=641) was 4 µg/mL (≈ 7.21 µM). The “% R (resistance)” value (MSSA; Europe, Eucast breakpoints) was 0%, the MIC90 (MSSA; Europe, N=2109) was 4 µg/mL (≈ 7.21 µM) and the “% R (resistance)” value (MSSA; L. Amer, CLSI breakpoints) was 0%. For the same molecule, the MIC90 (MSSA; L. Amer, N=590) was 4 µg/mL (≈ 7.21 µM), the “% R (resistance)” value (MSSA; N America, CLSI breakpoints) was 0.1% and the MIC90 (MSSA; N America, N=2373) was 4 µg/mL (≈ 7.21 µM). For the same molecule, the “% R (resistance)” value (K. pneumoniae ESBL−; Asia/Pac, Eucast breakpoints) was 0%, the MIC90 (K. pneumoniae ESBL−; Asia/Pac, N=189) was 0.12 µg/mL (≈ 0.216 µM) and the “% R (resistance)” value (K. pneumoniae ESBL−; Europe, Eucast breakpoints) was 0%. The MIC90 (K. pneumoniae ESBL−; Europe, N=361) was 0.12 µg/mL (≈ 0.216 µM), the “% R (resistance)” value (K. pneumoniae ESBL−; L. Amer, CLSI breakpoints) was 0% and the MIC90 (K. pneumoniae ESBL−; L. Amer, N=160) was 0.12 µg/mL (≈ 0.216 µM). For the same molecule, the “% R (resistance)” value (K. pneumoniae ESBL−; N America, CLSI breakpoints) was 0%, the MIC90 (K. pneumoniae ESBL−; N America, N=671) was 0.12 µg/mL (≈ 0.216 µM) and the “% R (resistance)” value (K. oxytoca; Asia/Pac, Eucast breakpoints) was 29.4%. The MIC90 (K. oxytoca; Asia/Pac, N=17) was > 8 µg/mL, the “% R (resistance)” value (K. oxytoca; Europe, Eucast breakpoints) was 17.7% and the MIC90 (K. oxytoca; Europe, N=158) was > 8 µg/mL. The “% R (resistance)” value (K. oxytoca; L. Amer, CLSI breakpoints) was 40%, the MIC90 (K. oxytoca; L. Amer, N=25) was > 8 µg/mL and the “% R (resistance)” value (K. oxytoca; N America, CLSI breakpoints) was 10.2%. For the same molecule, the MIC90 (K. oxytoca; N America, N=177) was 4 µg/mL (≈ 7.21 µM), the MIC90 (A. baumanii; Asia/Pac, N=275) was > 8 µg/mL and the MIC90 (A. baumanii; Europe, N=145) was > 8 µg/mL. The MIC90 (A. baumanii; L. Amer, N=275) was > 8 µg/mL, the MIC90 (A. baumanii; N America, N=154) was > 8 µg/mL and the MIC90 (E. faecalis VS; Asia/Pac, N=214) was > 8 µg/mL. For the same molecule, the MIC90 (E. faecalis VS; Europe, N=669) was > 8 µg/mL, the MIC90 (E. faecalis VS; L. Amer, N=290) was > 8 µg/mL and the MIC90 (E. faecalis VS; N America, N=863) was > 8 µg/mL. For the same molecule, the “% R (resistance)” value (MS CoNS; Asia/Pac, Eucast breakpoints) was 0%, the MIC90 (MS CoNS; Asia/Pac, N=18) was 8 µg/mL (≈ 14.4 µM) and the “% R (resistance)” value (MS CoNS; Europe, Eucast breakpoints) was 0%. For the same molecule, the MIC90 (MS CoNS; Europe, N=185) was 4 µg/mL (≈ 7.21 µM), the “% R (resistance)” value (MS CoNS; L. Amer, CLSI breakpoints) was 0% and the MIC90 (MS CoNS; L. Amer, N=67) was 4 µg/mL (≈ 7.21 µM). For the same molecule, the “% R (resistance)” value (MS CoNS; N America, CLSI breakpoints) was 0%, the MIC90 (MS CoNS; N America, N=191) was 4 µg/mL (≈ 7.21 µM) and the MIC90 (Acinetobacter spp; Europe, N=43) was > 8 µg/mL. For the same molecule, the “% R (resistance)” value (Acinetobacter spp; L. Amer) was 0%, the “% R (resistance)” value (Acinetobacter spp; N America) was 0% and the MIC90 (Acinetobacter spp; N America, N=42) was > 8 µg/mL. For the same molecule, the “% R (resistance)” value (MR CoNS; Asia/Pac, Eucast breakpoints) was 100%, the MIC90 (MR CoNS; Asia/Pac, N=77) was > 8 µg/mL and the “% R (resistance)” value (MR CoNS; Europe, Eucast breakpoints) was 100%. The MIC90 (MR CoNS; Europe, N=510) was > 8 µg/mL, the “% R (resistance)” value (MR CoNS; L. Amer, CLSI breakpoints) was 100% and the MIC90 (MR CoNS; L. Amer, N=301) was > 8 µg/mL. The “% R (resistance)” value (MR CoNS; N America, CLSI breakpoints) was 100% and the MIC90 (MR CoNS; N America, N=461) was > 8 µg/mL.
